Experimental findings from US7041704B2, “Methods of treating gastrointestinal tract disorders using sodium channel modulators” (Dynogen Pharmaceuticals, Inc., priority 2003, dated 2006) are described below.

In assay [1] the target is TTX-R sodium currents in GI tract afferent neurons (Rattus norvegicus, UniProt Q62968). Description: Whole cell patch-clamp, tonic block of TTX-R sodium currents, cumulative concentration-response. The class given is cell-based. As to conditions: bath application; four GI tract afferent neurons. As for the experimental part: (§1) Labeling of GI tract afferent neurons: Adult female Sprague-Dawley rats (150–300 g) were deeply anesthetized with pentobarbital anesthesia and placed on isoflurane maintenance anesthesia. A ventral midline incision was made through the abdominal skin and musculature, exposing the GI tract. Five injections of the fluorescent dyes Di-I (5 µl each of 25 mg/ml Di-I in DMSO) or Fast Blue (4% w/v) were made into the wall of the colon to label primary afferent fibers innervating the GI tract. The areas were rinsed with sterile saline to eliminate nonspecific spread of dye, and the incision was closed. […] Labeled neurons were identified in vitro using fluorescence optics. […]
TTX-R sodium currents in GI tract afferent neurons, sequence (Q62968 whole entry, looked up): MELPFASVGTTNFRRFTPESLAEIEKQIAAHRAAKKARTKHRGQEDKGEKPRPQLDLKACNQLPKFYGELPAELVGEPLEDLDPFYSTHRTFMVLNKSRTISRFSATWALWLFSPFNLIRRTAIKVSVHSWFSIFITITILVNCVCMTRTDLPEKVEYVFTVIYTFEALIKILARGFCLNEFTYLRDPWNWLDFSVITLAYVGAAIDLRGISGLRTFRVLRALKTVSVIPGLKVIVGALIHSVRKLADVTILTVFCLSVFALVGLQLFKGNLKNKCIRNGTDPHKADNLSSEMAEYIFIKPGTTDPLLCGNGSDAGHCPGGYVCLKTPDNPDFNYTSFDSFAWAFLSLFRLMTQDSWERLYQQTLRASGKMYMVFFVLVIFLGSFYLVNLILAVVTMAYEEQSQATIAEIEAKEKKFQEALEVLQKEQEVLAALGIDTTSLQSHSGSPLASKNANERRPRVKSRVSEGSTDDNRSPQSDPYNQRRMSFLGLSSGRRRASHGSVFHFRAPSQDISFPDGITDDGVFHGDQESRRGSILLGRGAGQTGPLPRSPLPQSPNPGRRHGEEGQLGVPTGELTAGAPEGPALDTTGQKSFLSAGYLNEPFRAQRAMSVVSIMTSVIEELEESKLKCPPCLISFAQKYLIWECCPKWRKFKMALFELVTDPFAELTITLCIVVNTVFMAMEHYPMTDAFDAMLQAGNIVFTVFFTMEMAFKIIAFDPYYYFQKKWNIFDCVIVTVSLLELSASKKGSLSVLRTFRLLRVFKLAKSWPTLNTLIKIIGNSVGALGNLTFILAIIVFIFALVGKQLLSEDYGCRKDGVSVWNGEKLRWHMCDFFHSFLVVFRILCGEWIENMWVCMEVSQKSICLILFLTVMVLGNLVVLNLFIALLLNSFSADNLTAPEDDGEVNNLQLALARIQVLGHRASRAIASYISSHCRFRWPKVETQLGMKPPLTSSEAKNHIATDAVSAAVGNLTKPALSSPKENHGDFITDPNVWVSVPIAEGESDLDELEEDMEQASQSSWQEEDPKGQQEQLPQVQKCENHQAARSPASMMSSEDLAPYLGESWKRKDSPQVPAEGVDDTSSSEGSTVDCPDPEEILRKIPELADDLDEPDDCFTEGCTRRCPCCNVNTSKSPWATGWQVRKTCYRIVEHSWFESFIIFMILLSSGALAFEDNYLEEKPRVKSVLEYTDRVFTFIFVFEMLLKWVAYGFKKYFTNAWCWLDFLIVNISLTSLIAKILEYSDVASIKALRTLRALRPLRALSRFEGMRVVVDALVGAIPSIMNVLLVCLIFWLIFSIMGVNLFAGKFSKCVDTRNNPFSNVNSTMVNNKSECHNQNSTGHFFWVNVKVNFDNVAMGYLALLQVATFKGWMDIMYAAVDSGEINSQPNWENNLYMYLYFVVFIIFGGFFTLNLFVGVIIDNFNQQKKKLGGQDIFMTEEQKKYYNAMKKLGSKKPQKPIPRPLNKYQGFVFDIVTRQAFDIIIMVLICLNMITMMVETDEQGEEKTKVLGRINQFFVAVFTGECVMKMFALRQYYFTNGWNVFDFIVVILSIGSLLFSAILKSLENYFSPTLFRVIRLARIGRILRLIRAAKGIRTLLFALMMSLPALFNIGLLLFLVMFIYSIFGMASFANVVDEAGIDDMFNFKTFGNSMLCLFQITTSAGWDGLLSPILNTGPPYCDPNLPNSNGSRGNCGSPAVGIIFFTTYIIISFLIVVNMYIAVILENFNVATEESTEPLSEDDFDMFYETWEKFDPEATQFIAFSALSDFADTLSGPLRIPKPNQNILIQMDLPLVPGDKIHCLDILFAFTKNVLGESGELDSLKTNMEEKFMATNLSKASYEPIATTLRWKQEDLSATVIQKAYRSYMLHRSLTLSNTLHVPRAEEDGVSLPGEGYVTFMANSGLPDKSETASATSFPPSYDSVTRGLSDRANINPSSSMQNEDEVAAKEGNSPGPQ
(§2) In most experiments, neurons were incubated in culture medium containing the FITC-labeled lectin BSI-B4 (IB4, […]) at 37° C. for 5 min before recording. The coverslip was washed with extracellular recording solution for 1 min before being placed in a recording chamber mounted on the stage of an inverted microscope equipped with fluorescence optics. […]
(§3) Sodium currents were recorded from DRG neurons using standard electrophysiologic protocols. […] Currents were recorded using a patch-clamp amplifier and digitized at 3–10 kHz for acquisition. Neuronal input resistance and membrane capacitance were determined from the amplitude and kinetics of the current response to a voltage pulse from a holding potential of −50 mV. […]

The test system of assay [2] is sodium currents in colon DRG neurons. Description: Whole cell patch-clamp, activity-dependent (use-dependent) modulation of sodium currents, slow vs fast stimulation. The class given is cell-based, rat. As to conditions: 100 µM lamotrigine; slow (0.2 Hz) vs fast (17 Hz) step depolarizations from −50 to 0 mV; three neurons; P<0.05 vs slow stimulation. As to the method: as §1, §2, §3

`Nc1c(Br)cc(Br)cc1CNC1CCC(O)CC1` (centres unmarked) [Ambroxol]: the “block of TTX-R sodium currents (in words)” value in assay [1] is listed as “concentration-dependent reversible block”.
As to `Nc1nnc(-c2cccc(Cl)c2Cl)c(N)n1` [lamotrigine, 6-(2,3-Dichlorophenyl)-1,2,4-triazine-3,5-diamine], the “mean peak sodium current amplitude (mean % control amplitude)” value in assay [2] is “decreased to a greater extent under fast stimulation conditions”.
